Measurements as given in ChEMBL document CHEMBL4477251, “Vialinin A and thelephantin G, potent inhibitors of tumor necrosis factor-α production, inhibit sentrin/SUMO-specific protease 1 enzymatic activity” (Bioorg Med Chem Lett, 2016).
Activity calls are given as the source filed them. No cut-off for these calls is given here.

Assays:
[1] = biological target: T1, Sentrin-specific protease 1 (Homo sapiens, UniProt Q9P0U3); test: Inhibition of recombinant human 6His-tagged SENP1 catalytic domain expressed in Escherichia coli preincubated for 15 mins followed by addition of SUMO1-AMC as substrate measured after 1 hr by fluorescence analysis
T1 sequence (Q9P0U3 whole entry): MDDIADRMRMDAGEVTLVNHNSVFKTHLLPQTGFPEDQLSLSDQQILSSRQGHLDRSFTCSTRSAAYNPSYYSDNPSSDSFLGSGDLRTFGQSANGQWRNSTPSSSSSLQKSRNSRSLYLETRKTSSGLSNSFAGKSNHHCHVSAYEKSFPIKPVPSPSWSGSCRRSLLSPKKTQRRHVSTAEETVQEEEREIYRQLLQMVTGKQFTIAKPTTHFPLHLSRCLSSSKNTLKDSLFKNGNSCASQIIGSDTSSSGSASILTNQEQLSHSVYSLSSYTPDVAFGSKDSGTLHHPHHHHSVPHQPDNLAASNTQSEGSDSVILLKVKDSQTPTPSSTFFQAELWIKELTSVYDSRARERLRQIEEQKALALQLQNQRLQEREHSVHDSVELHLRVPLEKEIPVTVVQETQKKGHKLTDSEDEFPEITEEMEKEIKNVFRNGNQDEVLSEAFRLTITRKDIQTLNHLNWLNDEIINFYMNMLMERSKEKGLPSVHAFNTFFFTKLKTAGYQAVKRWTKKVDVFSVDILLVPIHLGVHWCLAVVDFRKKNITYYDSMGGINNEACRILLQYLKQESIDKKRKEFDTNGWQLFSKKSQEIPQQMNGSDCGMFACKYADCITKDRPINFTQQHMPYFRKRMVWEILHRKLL

[2] = biological target: T1, Sentrin-specific protease 1; test: Inhibition of full-length recombinant human 6His-tagged SENP1 expressed in Escherichia coli BL21 (DE3) preincubated for 15 mins followed by addition of SUMO1-AMC as substrate measured after 1 hr by fluorescence analysis
[3] = biological target: T2, Sentrin-specific protease 1 (Homo sapiens) (UniProt Q9P0U3); test: Inhibition of SENP1 in human KU812 cells preincubated for 20 mins followed by addition of HA-SUMO1-VS as substrate measured after 2 hrs by immunoblot analysis; format: cell-based
T2 sequence (whole entry): T1 sequence (Q9P0U3 whole entry)

RBL-2H3 = test: Inhibition of TNF-alpha production in antigen-stimulated rat RBL2H3 cells measured after 15 mins by ELISA; conditions: RBL-2H3, 0.25 h
[4] = biological target: T1, Sentrin-specific protease 1; test: Binding affinity to full-length recombinant human 6His-tagged SENP1 expressed in Escherichia coli BL21 (DE3)
[5] = biological target: T1, Sentrin-specific protease 1; test: Binding affinity to recombinant human 6His-tagged SENP1 catalytic domain expressed in Escherichia coli
Mast cell = test: Inhibition of TNF-alpha production in mouse bone marrow-derived mast cells measured after 15 mins by ELISA; format: functional, cell-based; conditions: 0.25 h

SMILES	IC50 [1]	IC50 [2]	inhibition [3]	IC50 (RBL-2H3)	Ki [4]	Ki [5]	IC50 (Mast cell)
Cc1c(C)c(-c2ccc(OCc3cn(CCCCCCNC(=O)CCCC[C@@H]4SC[C@@H]5NC(=O)N[C@@H]54)nn3)cc2)c(O)c(O)c1-c1ccc(O)cc1	9730 nM	> 50000 nM					
CCN1C(=O)C=CC1=O			Active				
O=C(Cc1ccc(O)cc1)Oc1c(OC(=O)Cc2ccc(O)cc2)c(-c2ccc(O)cc2)c(O)c(O)c1-c1ccc(O)cc1				3.5 nM			
Cc1c(C)c(-c2ccc(O)cc2)c(O)c(O)c1-c1ccc(O)cc1	3760 nM	2710 nM	Active				
O=C(Cc1ccccc1)Oc1c(OC(=O)Cc2ccccc2)c(-c2ccc(O)cc2)c(O)c(O)c1-c1ccc(O)cc1 [VIALININ A]	1890 nM	1640 nM	Active		1070 nM	930 nM	0.04 nM
O=C1C(O)=C(c2ccc(O)cc2)C(=O)C(O)=C1c1ccc(O)cc1	6100 nM	3790 nM					
